Experimental data published in PubChem BioAssay (NCI).
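A five-concentration, 48-hour dose response in 96-well plates underlies each endpoint, interpolated linearly between surrounding concentrations. Here, GI50 denotes the concentration required for 50% inhibition of growth. TGI denotes the concentration required for complete inhibition of growth.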

Legend:
Experiment in all cases: NCI anticancer screen, dose series, 48 h
T-47D breast = system: T-47D breast
HCC-2998 colon = system: HCC-2998 colon
UO-31 renal = system: UO-31 renal
DU-145 prostate = system: DU-145 prostate
786-0 renal = system: 786-0 renal
IGROV1 ovarian = system: IGROV1 ovarian
SW-620 colon = system: SW-620 colon
A549 NSCLC = system: A549 NSCLC
UACC-62 melanoma = system: UACC-62 melanoma
BT-549 breast = system: BT-549 breast
MALME-3M melanoma = system: MALME-3M melanoma
OVCAR-4 ovarian = system: OVCAR-4 ovarian
LOX IMVI melanoma = system: LOX IMVI melanoma
SK-MEL-2 melanoma = system: SK-MEL-2 melanoma
SF-295 CNS = system: SF-295 CNS
HCT-116 colon = system: HCT-116 colon
HS 578T breast = system: HS 578T breast
HT29 colon = system: HT29 colon
HOP-62 NSCLC = system: HOP-62 NSCLC
CAKI-1 renal = system: CAKI-1 renal
PC-3 prostate = system: PC-3 prostate
RXF 393 renal = system: RXF 393 renal
MDA-MB-435 = system: MDA-MB-435
UACC-257 melanoma = system: UACC-257 melanoma
SNB-75 CNS = system: SNB-75 CNS
OVCAR-8 ovarian = system: OVCAR-8 ovarian
KM12 colon = system: KM12 colon
SF-268 CNS = system: SF-268 CNS
MCF7 breast = system: MCF7 breast
OVCAR-5 ovarian = system: OVCAR-5 ovarian
SK-MEL-5 melanoma = system: SK-MEL-5 melanoma
SK-OV-3 ovarian = system: SK-OV-3 ovarian
HL-60(TB) leukemia = system: HL-60(TB) leukemia
RPMI-8226 leukemia = system: RPMI-8226 leukemia
COLO 205 colon = system: COLO 205 colon
M14 melanoma = system: M14 melanoma
NCI-H226 lung = system: NCI-H226 lung
NCI-H522 lung = system: NCI-H522 lung
SNB-19 CNS = system: SNB-19 CNS
K-562 leukemia = system: K-562 leukemia
A498 renal = system: A498 renal
SN12C renal = system: SN12C renal
MDA-MB-231 breast = system: MDA-MB-231 breast
SR leukemia = system: SR leukemia
HOP-92 NSCLC = system: HOP-92 NSCLC
SK-MEL-28 melanoma = system: SK-MEL-28 melanoma
HCT-15 colon = system: HCT-15 colon
U251 CNS = system: U251 CNS
NCI/ADR-RES ovarian = system: NCI/ADR-RES ovarian
CCRF-CEM leukemia = system: CCRF-CEM leukemia
NCI-H23 lung = system: NCI-H23 lung
MOLT-4 leukemia = system: MOLT-4 leukemia
OVCAR-3 ovarian = system: OVCAR-3 ovarian
NCI-H460 lung = system: NCI-H460 lung
SF-539 CNS = system: SF-539 CNS
TK-10 renal = system: TK-10 renal
ACHN renal = system: ACHN renal
EKVX NSCLC = system: EKVX NSCLC

Question: Which results are given for `CCN(CC)S(=O)(=O)c1ccc(OC)c(Nc2ncc(-c3ccccc3)o2)c1`?
Answer: GI50 (T-47D breast): > 11 µM; TGI (T-47D breast): 24.4 µM; GI50 (HCC-2998 colon): > 25 µM; TGI (HCC-2998 colon): > 25 µM; GI50 (UO-31 renal): > 12.9 µM; TGI (UO-31 renal): > 25 µM; GI50 (DU-145 prostate): > 25 µM; TGI (DU-145 prostate): > 25 µM; GI50 (786-0 renal): 22.8 µM; TGI (786-0 renal): > 25 µM; GI50 (IGROV1 ovarian): > 25 µM; TGI (IGROV1 ovarian): > 25 µM; GI50 (SW-620 colon): > 23.7 µM; TGI (SW-620 colon): > 25 µM; GI50 (A549 NSCLC): 24.9 µM; TGI (A549 NSCLC): > 25 µM; GI50 (UACC-62 melanoma): > 18.3 µM; TGI (UACC-62 melanoma): > 25 µM; GI50 (BT-549 breast): > 18.4 µM; TGI (BT-549 breast): > 25 µM; GI50 (MALME-3M melanoma): > 25 µM; TGI (MALME-3M melanoma): > 25 µM; GI50 (OVCAR-4 ovarian): 5.57 µM; TGI (OVCAR-4 ovarian): > 25 µM; GI50 (LOX IMVI melanoma): > 22.6 µM; TGI (LOX IMVI melanoma): > 25 µM; GI50 (SK-MEL-2 melanoma): > 22.7 µM; TGI (SK-MEL-2 melanoma): > 25 µM; GI50 (SF-295 CNS): > 16.5 µM; TGI (SF-295 CNS): > 25 µM; GI50 (HCT-116 colon): > 17.9 µM; TGI (HCT-116 colon): > 25 µM; GI50 (HS 578T breast): > 14.4 µM; TGI (HS 578T breast): > 25 µM; GI50 (HT29 colon): > 17.6 µM; TGI (HT29 colon): > 25 µM; GI50 (HOP-62 NSCLC): > 20.1 µM; TGI (HOP-62 NSCLC): > 25 µM; GI50 (CAKI-1 renal): > 25 µM; TGI (CAKI-1 renal): > 25 µM; GI50 (PC-3 prostate): > 15.9 µM; TGI (PC-3 prostate): > 25 µM; GI50 (RXF 393 renal): > 10.6 µM; TGI (RXF 393 renal): > 25 µM; GI50 (MDA-MB-435): > 25 µM; TGI (MDA-MB-435): > 25 µM; GI50 (UACC-257 melanoma): > 25 µM; TGI (UACC-257 melanoma): > 25 µM; GI50 (SNB-75 CNS): > 9.36 µM; TGI (SNB-75 CNS): > 25 µM; GI50 (OVCAR-8 ovarian): > 25 µM; TGI (OVCAR-8 ovarian): > 25 µM; GI50 (KM12 colon): 0.845 µM; TGI (KM12 colon): > 25 µM; GI50 (SF-268 CNS): > 22.3 µM; TGI (SF-268 CNS): > 25 µM; GI50 (MCF7 breast): > 14.7 µM; TGI (MCF7 breast): > 25 µM; GI50 (OVCAR-5 ovarian): > 21.7 µM; TGI (OVCAR-5 ovarian): > 25 µM; GI50 (SK-MEL-5 melanoma): > 12.2 µM; TGI (SK-MEL-5 melanoma): > 25 µM; GI50 (SK-OV-3 ovarian): 20.9 µM; TGI (SK-OV-3 ovarian): > 25 µM; GI50 (HL-60(TB) leukemia): > 15 µM; TGI (HL-60(TB) leukemia): > 25 µM; GI50 (RPMI-8226 leukemia): > 25 µM; TGI (RPMI-8226 leukemia): > 25 µM; GI50 (COLO 205 colon): > 25 µM; TGI (COLO 205 colon): > 25 µM; GI50 (M14 melanoma): > 25 µM; TGI (M14 melanoma): > 25 µM; GI50 (NCI-H226 lung): > 5.28 µM; TGI (NCI-H226 lung): > 25 µM; GI50 (NCI-H522 lung): > 16.9 µM; TGI (NCI-H522 lung): > 25 µM; GI50 (SNB-19 CNS): > 19.2 µM; TGI (SNB-19 CNS): > 25 µM; GI50 (K-562 leukemia): > 16.2 µM; TGI (K-562 leukemia): > 25 µM; GI50 (A498 renal): 1.24 µM; TGI (A498 renal): > 15.5 µM; GI50 (SN12C renal): > 22.7 µM; TGI (SN12C renal): > 25 µM; GI50 (MDA-MB-231 breast): > 13.9 µM; TGI (MDA-MB-231 breast): > 25 µM; GI50 (SR leukemia): > 14.1 µM; TGI (SR leukemia): > 25 µM; GI50 (HOP-92 NSCLC): 7.12 µM; TGI (HOP-92 NSCLC): > 25 µM; GI50 (SK-MEL-28 melanoma): > 25 µM; TGI (SK-MEL-28 melanoma): > 25 µM; GI50 (HCT-15 colon): > 15.5 µM; TGI (HCT-15 colon): > 25 µM; GI50 (U251 CNS): > 18.7 µM; TGI (U251 CNS): > 25 µM; GI50 (NCI/ADR-RES ovarian): > 17.8 µM; TGI (NCI/ADR-RES ovarian): > 25 µM; GI50 (CCRF-CEM leukemia): > 19.3 µM; TGI (CCRF-CEM leukemia): > 25 µM; GI50 (NCI-H23 lung): > 22.7 µM; TGI (NCI-H23 lung): > 25 µM; GI50 (MOLT-4 leukemia): > 18.3 µM; TGI (MOLT-4 leukemia): > 25 µM; GI50 (OVCAR-3 ovarian): > 19.5 µM; TGI (OVCAR-3 ovarian): > 25 µM; GI50 (NCI-H460 lung): > 23.1 µM; TGI (NCI-H460 lung): > 25 µM; GI50 (SF-539 CNS): > 17.3 µM; TGI (SF-539 CNS): > 25 µM; GI50 (TK-10 renal): > 17.4 µM; TGI (TK-10 renal): > 25 µM; GI50 (ACHN renal): > 22.7 µM; TGI (ACHN renal): > 25 µM; GI50 (EKVX NSCLC): > 25 µM; TGI (EKVX NSCLC): > 25 µM
